We go through two molecules from ChEMBL document CHEMBL1914418, “Biochemical and pharmacological profiling of the pro-survival protein Bcl-xL” (Bioorg Med Chem Lett, 2011).

For experiment [1], the target named is T1, Bcl-2-like protein 1 (Homo sapiens, UniProt Q07817, A142T). Briefly: Displacement of BODIPY-Bak conjugated peptide from GST-tagged human Bcl-2-like protein 1 A142T mutant expressed in Escherichia coli BL21 cells at 10 uM after 3 hrs by fluorescence polarization competition assay. In general terms: Polarisation of emitted light reports the rotation of a fluorescent probe.
T1 sequence (Q07817 whole entry A142T): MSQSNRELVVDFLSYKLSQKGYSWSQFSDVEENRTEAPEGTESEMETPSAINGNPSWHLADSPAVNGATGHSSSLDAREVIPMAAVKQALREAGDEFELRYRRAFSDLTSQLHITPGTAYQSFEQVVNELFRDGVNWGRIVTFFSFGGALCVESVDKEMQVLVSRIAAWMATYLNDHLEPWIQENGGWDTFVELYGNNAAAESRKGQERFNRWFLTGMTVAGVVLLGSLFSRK

The target of experiment [2] is T2, Bcl-2-like protein 1 (Homo sapiens, UniProt Q07817). Briefly: Displacement of BODIPY-Bak conjugated peptide from GST-tagged human Wild type Bcl-2-like protein 1 expressed in Escherichia coli BL21 cells at 10 uM after 3 hrs by fluorescence polarization competition assay.
T2 sequence (Q07817 whole entry): as the sequence (Q07817 whole entry A142T) above, with T142A counted along it
For experiment [3], the target named is Induced myeloid leukemia cell differentiation protein Mcl-1 homolog (Mus musculus, UniProt P97287). Description: Binding affinity for GST-tagged mouse MCL1 expressed in Escherichia coli BL21 cells.
Induced myeloid leukemia cell differentiation protein Mcl-1 homolog, sequence (P97287 whole entry): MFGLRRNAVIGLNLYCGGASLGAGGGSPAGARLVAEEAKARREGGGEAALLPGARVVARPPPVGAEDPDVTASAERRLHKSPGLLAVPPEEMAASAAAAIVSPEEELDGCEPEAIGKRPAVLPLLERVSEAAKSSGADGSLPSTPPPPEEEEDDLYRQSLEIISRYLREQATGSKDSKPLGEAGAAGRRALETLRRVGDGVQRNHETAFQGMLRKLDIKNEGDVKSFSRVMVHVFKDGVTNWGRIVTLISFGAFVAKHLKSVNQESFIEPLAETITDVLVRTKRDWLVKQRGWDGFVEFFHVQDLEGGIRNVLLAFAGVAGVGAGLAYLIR
In experiment [4] the target is T3, Bcl-2-like protein 1 (Homo sapiens, UniProt Q07817, Y101H). Description: Displacement of BODIPY-Bak conjugated peptide from GST-tagged human Bcl-2-like protein 1 Y101H mutant expressed in Escherichia coli BL21 cells at 10 uM after 3 hrs by fluorescence polarization competition assay.
T3 sequence (Q07817 whole entry Y101H): as the sequence (Q07817 whole entry A142T) above, with Y101H, T142A counted along it
Experiment [5] can be described thus: Displacement of BODIPY-Bak conjugated peptide from GST-tagged human Bcl-2-like protein 1 A142Gdelta136T mutant expressed in Escherichia coli BL21 cells at 10 uM after 3 hrs by fluorescence polarization competition assay.
Experiment [6] has as its target T4, Bcl-2-like protein 1 (Homo sapiens, UniProt Q07817, A142G). Briefly: Displacement of BODIPY-Bak conjugated peptide from GST-tagged human Bcl-2-like protein 1 A142G mutant expressed in Escherichia coli BL21 cells at 10 uM after 3 hrs by fluorescence polarization competition assay.
The target of experiment [7] is T5, Bcl-2-like protein 1 (Homo sapiens, UniProt Q07817, A93V). Description: Displacement of BODIPY-Bak conjugated peptide from GST-tagged human Bcl-2-like protein 1 A93V mutant expressed in Escherichia coli BL21 cells at 10 uM after 3 hrs by fluorescence polarization competition assay.
T5 sequence (Q07817 whole entry A93V): as the sequence (Q07817 whole entry A142T) above, with A93V, T142A counted along it
For experiment [8], the target named is T6, Bcl-2-like protein 1 (Homo sapiens, UniProt Q07817, E96G). Description: Displacement of BODIPY-Bak conjugated peptide from GST-tagged human Bcl-2-like protein 1 E96G mutant expressed in Escherichia coli BL21 cells at 10 uM after 3 hrs by fluorescence polarization competition assay.
T6 sequence (Q07817 whole entry E96G): as the sequence (Q07817 whole entry A142T) above, with E96G, T142A counted along it
The target of experiment [9] is T7, Bcl-2-like protein 1 (Homo sapiens, UniProt Q07817, G196A). Briefly: Displacement of BODIPY-Bak conjugated peptide from GST-tagged human Bcl-2-like protein 1 G196A mutant expressed in Escherichia coli BL21 cells at 10 uM after 3 hrs by fluorescence polarization competition assay.
T7 sequence (Q07817 whole entry G196A): as the sequence (Q07817 whole entry A142T) above, with T142A, G196A counted along it
Experiment [10] in a line: Displacement of BODIPY-Bak conjugated peptide from GST-tagged human Bcl-2-like protein 1 delta136T mutant expressed in Escherichia coli BL21 cells at 10 uM after 3 hrs by fluorescence polarization competition assay.
The target in experiment [11] is T8, Bcl-2-like protein 1 (Homo sapiens, UniProt Q07817, L130G). Briefly: Displacement of BODIPY-Bak conjugated peptide from GST-tagged human Bcl-2-like protein 1 L130G mutant expressed in Escherichia coli BL21 cells at 10 uM after 3 hrs by fluorescence polarization competition assay.
T8 sequence (Q07817 whole entry L130G): as the sequence (Q07817 whole entry A142T) above, with L130G, T142A counted along it
For experiment [12], the target named is T9, Bcl-2-like protein 1 (Homo sapiens, UniProt Q07817, Y195F). Briefly: Displacement of BODIPY-Bak conjugated peptide from GST-tagged human Bcl-2-like protein 1 Y195F mutant expressed in Escherichia coli BL21 cells at 10 uM after 3 hrs by fluorescence polarization competition assay.
T9 sequence (Q07817 whole entry Y195F): as the sequence (Q07817 whole entry A142T) above, with T142A, Y195F counted along it
For experiment [13], the target named is T10, Bcl-2-like protein 1 (Homo sapiens, UniProt Q07817, E129H). Briefly: Displacement of BODIPY-Bak conjugated peptide from GST-tagged human Bcl-2-like protein 1 E129H mutant expressed in Escherichia coli BL21 cells at 10 uM after 3 hrs by fluorescence polarization competition assay.
T10 sequence (Q07817 whole entry E129H): as the sequence (Q07817 whole entry A142T) above, with E129H, T142A counted along it
Another experiment deals with T11, Bcl-2-related protein A1 (Homo sapiens, UniProt Q16548).
T11 sequence (Q16548 whole entry): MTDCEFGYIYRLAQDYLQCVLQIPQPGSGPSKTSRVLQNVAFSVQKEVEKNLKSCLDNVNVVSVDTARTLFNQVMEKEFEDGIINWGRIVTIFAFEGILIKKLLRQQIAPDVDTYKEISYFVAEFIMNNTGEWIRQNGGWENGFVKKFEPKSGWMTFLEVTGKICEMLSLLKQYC
Briefly: Binding affinity for GST-tagged human BCL2A1 expressed in Escherichia coli BL21 cells.

Experiment [14] concerns the target T12, Bcl-2-like protein 1 (Homo sapiens, UniProt Q07817, F97V). Briefly: Displacement of BODIPY-Bak conjugated peptide from GST-tagged human Bcl-2-like protein 1 F97V mutant expressed in Escherichia coli BL21 cells at 10 uM after 3 hrs by fluorescence polarization competition assay.
Experiment [15] has as its target T13, Bcl-2-like protein 1 (Homo sapiens, UniProt Q07817, L130A). Description: Displacement of BODIPY-Bak conjugated peptide from GST-tagged human Bcl-2-like protein 1 L130A mutant expressed in Escherichia coli BL21 cells at 10 uM after 3 hrs by fluorescence polarization competition assay.
Experiment [16] concerns the target T14, Bcl-2-like protein 1 (Homo sapiens, UniProt Q07817, V141A). Briefly: Displacement of BODIPY-Bak conjugated peptide from GST-tagged human Bcl-2-like protein 1 V141A mutant expressed in Escherichia coli BL21 cells at 10 uM after 3 hrs by fluorescence polarization competition assay.
Experiment [17] deals with T6, Bcl-2-like protein 1. Briefly: Displacement of BODIPY-Bak conjugated peptide from GST-tagged human Bcl-2-like protein 1 E96G mutant expressed in Escherichia coli BL21 cells at 40 uM after 3 hrs by fluorescence polarization competition assay.
Experiment [18] deals with T2, Bcl-2-like protein 1. Briefly: Displacement of BODIPY-Bak conjugated peptide from GST-tagged human Wild type Bcl-2-like protein 1 expressed in Escherichia coli BL21 cells at 40 uM after 3 hrs by fluorescence polarization competition assay.
Experiment [19] can be described thus: Displacement of BODIPY-Bak conjugated peptide from GST-tagged human Bcl-2-like protein 1 A142G, delta136T mutant expressed in Escherichia coli BL21 cells at 40 uM after 3 hrs by fluorescence polarization competition assay.
For experiment [20], the target named is T7, Bcl-2-like protein 1. Description: Displacement of BODIPY-Bak conjugated peptide from GST-tagged human Bcl-2-like protein 1 G196A mutant expressed in Escherichia coli BL21 cells at 40 uM after 3 hrs by fluorescence polarization competition assay.
Experiment [21] has as its target T9, Bcl-2-like protein 1. Briefly: Displacement of BODIPY-Bak conjugated peptide from GST-tagged human Bcl-2-like protein 1 Y195F mutant expressed in Escherichia coli BL21 cells at 40 uM after 3 hrs by fluorescence polarization competition assay.
Experiment [22] concerns the target T13, Bcl-2-like protein 1. Briefly: Displacement of BODIPY-Bak conjugated peptide from GST-tagged human Bcl-2-like protein 1 L130A mutant expressed in Escherichia coli BL21 cells at 40 uM after 3 hrs by fluorescence polarization competition assay.
Experiment [23] is described as follows: Displacement of BODIPY-Bak conjugated peptide from GST-tagged human Bcl-2-like protein 1 delta136T mutant expressed in Escherichia coli BL21 cells at 40 uM after 3 hrs by fluorescence polarization competition assay.
Experiment [24] has as its target T5, Bcl-2-like protein 1. Briefly: Displacement of BODIPY-Bak conjugated peptide from GST-tagged human Bcl-2-like protein 1 A93V mutant expressed in Escherichia coli BL21 cells at 40 uM after 3 hrs by fluorescence polarization competition assay.
For experiment [25], the target named is Bcl-2-like protein 1 (Homo sapiens, UniProt Q07817, R100E). Briefly: Displacement of BODIPY-Bak conjugated peptide from GST-tagged human Bcl-2-like protein 1 R100E mutant expressed in Escherichia coli BL21 cells at 40 uM after 3 hrs by fluorescence polarization competition assay.
Bcl-2-like protein 1 (Homo sapiens, UniProt Q07817, R100E), sequence (Q07817 whole entry R100E): as the sequence (Q07817 whole entry A142T) above, with R100E, T142A counted along it
Experiment [26] concerns the target Bcl-2-like protein 1 (Homo sapiens, UniProt Q07817, L130V). Description: Displacement of BODIPY-Bak conjugated peptide from GST-tagged human Bcl-2-like protein 1 L130V mutant expressed in Escherichia coli BL21 cells at 40 uM after 3 hrs by fluorescence polarization competition assay.
In experiment [27] the target is T3, Bcl-2-like protein 1. Briefly: Displacement of BODIPY-Bak conjugated peptide from GST-tagged human Bcl-2-like protein 1 Y101H mutant expressed in Escherichia coli BL21 cells at 40 uM after 3 hrs by fluorescence polarization competition assay.
Experiment [28] has as its target T14, Bcl-2-like protein 1. Description: Displacement of BODIPY-Bak conjugated peptide from GST-tagged human Bcl-2-like protein 1 V141A mutant expressed in Escherichia coli BL21 cells at 40 uM after 3 hrs by fluorescence polarization competition assay.
Experiment [29] addresses T4, Bcl-2-like protein 1. Briefly: Displacement of BODIPY-Bak conjugated peptide from GST-tagged human Bcl-2-like protein 1 A142G mutant expressed in Escherichia coli BL21 cells at 40 uM after 3 hrs by fluorescence polarization competition assay.
The target of experiment [30] is T12, Bcl-2-like protein 1. Description: Displacement of BODIPY-Bak conjugated peptide from GST-tagged human Bcl-2-like protein 1 F97V mutant expressed in Escherichia coli BL21 cells at 40 uM after 3 hrs by fluorescence polarization competition assay.
In experiment [31] the target is T1, Bcl-2-like protein 1. Description: Displacement of BODIPY-Bak conjugated peptide from GST-tagged human Bcl-2-like protein 1 A142T mutant expressed in Escherichia coli BL21 cells at 40 uM after 3 hrs by fluorescence polarization competition assay.
Experiment [32] concerns the target T8, Bcl-2-like protein 1. Briefly: Displacement of BODIPY-Bak conjugated peptide from GST-tagged human Bcl-2-like protein 1 L130G mutant expressed in Escherichia coli BL21 cells at 40 uM after 3 hrs by fluorescence polarization competition assay.
In experiment [33] the target is T10, Bcl-2-like protein 1. Description: Displacement of BODIPY-Bak conjugated peptide from GST-tagged human Bcl-2-like protein 1 E129H mutant expressed in Escherichia coli BL21 cells at 40 uM after 3 hrs by fluorescence polarization competition assay.

Some results are limits rather than exact numbers.

T4 sequence (Q07817 whole entry A142G): as the sequence (Q07817 whole entry A142T) above, with T142G counted along it
T13 sequence (Q07817 whole entry L130A): as the sequence (Q07817 whole entry A142T) above, with L130A, T142A counted along it
T12 sequence (Q07817 whole entry F97V): as the sequence (Q07817 whole entry A142T) above, with F97V, T142A counted along it
T14 sequence (Q07817 whole entry V141A): as the sequence (Q07817 whole entry A142T) above, with V141A, T142A counted along it
Bcl-2-like protein 1 (Homo sapiens, UniProt Q07817, L130V), sequence (Q07817 whole entry L130V): as the sequence (Q07817 whole entry A142T) above, with L130V, T142A counted along it

For `CN(C)CC[C@H](CSc1ccccc1)Nc1ccc(S(=O)(=O)NC(=O)c2ccc(N3CCC(C)(C)CC3)cc2)cc1[N+](=O)[O-]`, the inhibition constant Ki is 720 nM on Bcl-2-like protein 1 [1]; 6.3 nM at Bcl-2-like protein 1 [2]; 450 nM at Bcl-2-like protein 1 [4]; 45 nM in [5]; 290 nM at Bcl-2-like protein 1 [6]; less than 1 nM at Bcl-2-like protein 1 [7]. The Ki on Bcl-2-like protein 1 [8] was found to be 24 nM; at Bcl-2-like protein 1 [9], 41 nM; in experiment [10], 34 nM; at Bcl-2-like protein 1 [11] it was 86 nM; at Bcl-2-like protein 1 [12], 51 nM; on Bcl-2-like protein 1 [13], 34 nM. The Ki was 82 nM on Bcl-2-like protein 1 [14], 47 nM on Bcl-2-like protein 1 [15] and 390 nM at Bcl-2-like protein 1 [16]. The Kd (in experiment [3]; on Bcl-2-related protein A1) was more than 1000 nM throughout.

For the molecule `CSCC[C@H](NC(=O)[C@H](CCCNC(=N)N)NC(=O)[C@H](CCCNC(=N)N)NC(=O)[C@H](CC(C)C)NC(=O)[C@H](CCC(=O)O)NC(=O)[C@H](CCCNC(=N)N)NC(=O)CNC(=O)[C@H](Cc1ccc(O)cc1)NC(=O)[C@H](CCCNC(=N)N)NC(=O)[C@H](CCC(N)=O)NC(=O)[C@H](C)NC(=O)[C@H](C)NC(=O)[C@H](Cc1c[nH]c2ccccc12)NC(=O)[C@@H](N)CC(C)C)C(=O)N[C@@H](CO)C(=O)N[C@@H](CC(=O)O)C(=O)N[C@@H](CCC(=O)O)C(=O)N[C@@H](Cc1ccccc1)C(=O)N[C@@H](CCC(=O)O)C(=O)NCC(=O)N[C@@H](CO)C(=O)N[C@@H](Cc1ccccc1)C(=O)N[C@@H](CCCCN)C(=O)NCC(=O)N[C@@H](CC(C)C)C(=O)O`, the Ki was less than 5 nM on Bcl-2-like protein 1 [17]; 3.2 nM at Bcl-2-like protein 1 [18]; 9.8 nM in experiment [19]; 2.3 nM at Bcl-2-like protein 1 [20]; 4.5 nM on Bcl-2-like protein 1 [21]; 140 nM at Bcl-2-like protein 1 [22]. Further, the Ki in experiment [23] is 8.5 nM; at Bcl-2-like protein 1 [24], less than 1 nM; on Bcl-2-like protein 1 [25] it was 55 nM; on Bcl-2-like protein 1 [26], 11 nM; on Bcl-2-like protein 1 [27], 96 nM; at Bcl-2-like protein 1 [28], 42 nM. In addition, the Ki was less than 1 nM at Bcl-2-like protein 1 [29]; 150 nM at Bcl-2-like protein 1 [30]; 41 nM at Bcl-2-like protein 1 [31]; 660 nM on Bcl-2-like protein 1 [32]; 77 nM at Bcl-2-like protein 1 [33].

Broadly, the Ki is a measure of affinity in units of concentration, obtained from inhibition or displacement. The Kd is the concentration at which binding is half-saturated. Read a low Kd as a tighter complex.
